Our source for the IC50 values is patent US20060116390A1, “Hepatitis c virus inhibitors” (priority 2003, published 2006).

As usually defined, the IC50 is the concentration needed to halve the response being measured.

The test system of the assay is HCV proteins in Rep5.1 cells (replicon cell line). As to the kind of experiment: Inhibitory activity of HCV: cell-based ELISA in replicon cell line Rep5.1 (decrease of HCV proteins). Also on record: species or system hepatitis C virus. To be noted: Rep5.1 cells, 72 hours with drug. In short, it runs like this:
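HCV protein loss was quantified by ELISA on methanol/acetone-fixed cells 72 h after drug addition, probing with selected HCV-positive human plasma, and IC50 was defined as 50% reduction relative to untreated wells. The cells were Rep5.1 replicon cells cultured in DMEM-10 with 500 μg/ml G418, plated at 5000 per well and dosed with serial dilutions after 4 h attachment.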

Where [1] appears, read: Hepatitis C virus, 72 h, concentration at which 50% of HCV proteins was decreased, Table 2, read-out: IC50.
The mark [2] stands for this setting: Hepatitis C virus, 72 h, decrease of HCV proteins measured by HCV antibody, Table 1, read-out: Level (IC50 values classified).

Like-named read-outs stand apart in the source and are kept apart here. Where only a bound is given, the exact number is not on record here.

Take `C=CCN(CC)c1ccc(CCOC(=O)C2=C(C)NC(=S)NC2CO)cc1[N+](=O)[O-]` (stereo not shown) [97″, 4-Hydroxymethyl-6-methyl-2-thioxo-1,2,3,4-tetrahydro-pyrimidine-5-carboxylic acid 2-[4-(allyl-ethyl-amino)-3-nitro-phenyl]-ethyl ester]: the IC50 runs as follows: under setting [1], 0.6 µM; under setting [2], under 1 µM.

In the case of `COc1ccccc1COC(=O)C1=C(C)NC(=S)NC1` [Compound 65, 6-methyl-2-thioxo-1,2,3,4-tetrahydro-pyrimidine-5-carboxylic acid 2-methoxy-benzyl ester], the IC50 is 1 µM under setting [1] and under 1 µM under setting [2].

`CC1=C(C(=O)OCc2ccc(O)cc2)CNC(=S)N1` [Compound 229, 6-methyl-2-thioxo-1,2,3,4-tetrahydro-pyrimidine-5-carboxylic acid 4-hydroxy-benzyl ester]: the half-inhibitory concentration (IC50) is over 100 µM under setting [1] and over 20 µM under setting [2].

As to `CC1=C(C(=O)OCCc2ccc(N(C)C)cc2)CNC(=S)N1` [Compound 95, 6-methyl-2-thioxo-1,2,3,4-tetrahydro-pyrimidine-5-carboxylic acid 2-(4-dimethylamino-phenyl)-ethyl ester], the IC50 under setting [1] was found to be 0.7 µM and the IC50 under setting [2] was under 1 µM.

Take `CCCCCC(CC)OC(=O)C1=C(C)NC(=S)NC1` (stereo not shown) [Compound 47, 6-methyl-2-thioxo-1,2,3,4-tetrahydro-pyrimidine-5-carboxylic acid 1-ethyl-hexyl ester]: the 50% inhibitory concentration (IC50) reads like this: under setting [1], under 0.5 µM; under setting [2], under 1 µM.

Consider `CC1=C(C(=O)OCCc2ccsc2)C(CCl)NC(=S)N1` (stereo not shown) [76′, 4-chloromethyl-6-methyl-2-thioxo-1,2,3,4-tetrahydro-pyrimidine-5-carboxylic acid 2-thiophen-3-yl-ethyl ester], for which the half-maximal inhibitory concentration (IC50) is, setting by setting: under setting [1], 62 µM; under setting [2], over 20 µM.

`COC(=O)NCCOC(=O)OCC1NC(=S)NC(C)=C1C(=O)OCCc1cccc(Cl)c1` (stereo not shown) [80″, 4-(2-methoxycarbonylnamino-ethoxycarbonyloxymethyl)-6-methyl-2-thioxo-1,2,3,4-tetrahydro-pyrimidine-5-carboxylic acid 2-(3-chloro-phenyl)-ethyl ester]: the IC50 (concentration at which 50% of HCV proteins was decreased, Table 2, read-out: IC50) was 1.1 µM.

On to `CC1=C(C(=O)OCCc2ccc(F)c(C)c2)C(CO)NC(=S)N1` (stereo not shown) [66″, 4-hydroxymethyl-6-methyl-2-thioxo-1,2,3,4-tetrahydro-pyrimidine-5-carboxylic acid 2-(4-fluoro-3-methyl-phenyl)-ethyl ester], for which the IC50 under setting [1] was determined as 0.7 µM and the IC50 under setting [2] was under 1 µM.

For the molecule `CC1=C(C(=O)OCCc2cccs2)CNC(=S)N1` [Compound 206, 6-methyl-2-thioxo-1,2,3,4-tetrahydro-pyrimidine-5-carboxylic acid 2-thiophen-2-yl-ethyl ester], the IC50 was 0.6 µM under setting [1] and under 1 µM under setting [2].

As for `COCC1NC(=S)NC(C)=C1C(=O)OCCc1ccsc1` (stereo not shown) [2″, 4-methoxymethyl-6-methyl-2-thioxo-1,2,3,4-tetrahydro-pyrimidine-5-carboxylic acid 2-thiophen-3-yl-ethyl ester], the IC50 is 35 µM under setting [1] and over 20 µM under setting [2].

Consider `CC1=C(C(=O)OCc2ccc(Br)cc2)CNC(=S)N1` [Compound 60, 6-methyl-2-thioxo-1,2,3,4-tetrahydro-pyrimidine-5-carboxylic acid 4-bromo-benzyl ester], for which the half-inhibitory concentration (IC50) under setting [1] was under 0.5 µM and the half-maximal inhibitory concentration (IC50) under setting [2] is under 1 µM.

For `CC1=C(C(=O)OCc2cc(C(F)(F)F)cc(C(F)(F)F)c2)CNC(=S)N1` [Compound 148, 6-methyl-2-thioxo-1,2,3,4-tetrahydro-pyrimidine-5-carboxylic acid 3,5-bis-trifluoromethyl-benzyl ester], the 50% inhibitory concentration (IC50) under setting [1] is under 0.4 µM and the IC50 under setting [2] was under 1 µM.

On to `CC1=C(C(=O)OCc2ccccc2Cl)CNC(=S)N1` [Compound 84, 6-methyl-2-thioxo-1,2,3,4-tetrahydro-pyrimidine-5-carboxylic acid 2-chloro-benzyl ester], for which the concentration for half-maximal inhibition (IC50) is under 0.4 µM under setting [1] and under 1 µM under setting [2].

For `CC1=C(C(=O)OCCc2c(F)c(F)cc(F)c2F)C(CF)NC(=S)N1` (stereo not shown) [65′, 4-fluoromethyl-6-methyl-2-thioxo-1,2,3,4-tetrahydro-pyrimidine-5-carboxylic acid 2-(2,3,5,6-tetrafluoro-phenyl)-ethyl ester], the IC50 under setting [1] was 1.4 µM and the IC50 under setting [2] lay in the range of 1 to 10 µM.

Consider `CC1=C(C(=O)OCCCc2ccsc2)CNC(=S)N1` [Compound 243, 6-methyl-2-thioxo-1,2,3,4-tetrahydro-pyrimidine-5-carboxylic acid 3-thiophen-3-yl-propyl ester], for which the concentration for half-maximal inhibition (IC50) is under 0.4 µM under setting [1] and under 1 µM under setting [2].

Regarding `CC1=C(C(=O)OCCc2cc(F)cc(F)c2)C(CF)NC(=S)N1` (stereo not shown) [85′, 4-fluoromethyl-6-methyl-2-thioxo-1,2,3,4-tetrahydro-pyrimidine-5-carboxylic acid 2-(3,5-difluoro-phenyl)-ethyl ester], the IC50 by setting is: under setting [1], 2.7 µM; under setting [2], 1 to 10 µM.

In the case of `CC1=C(C(=O)OCCc2cccc(Cl)c2)C(CO)NC(=S)N1` (stereo not shown) [31″, 4-hydroxymethyl-6-methyl-2-thioxo-1,2,3,4-tetrahydro-pyrimidine-5-carboxylic acid 2-(3-chloro-phenyl)-ethyl ester], the half-maximal inhibitory concentration (IC50) by setting is: under setting [1], 1 µM; under setting [2], under 1 µM.

For `CC1=C(C(=O)OCc2nc3ccccc3n2C)CNC(=S)N1` [Compound 241, 6-methyl-2-thioxo-1,2,3,4-tetrahydro-pyrimidine-5-carboxylic acid 1-methyl-1H-benzoimidazol-2-ylmethyl ester], the half-maximal inhibitory concentration (IC50) by setting is: under setting [1], 97 µM; under setting [2], over 20 µM.

As for `COc1ccc(CCCOC(=O)C2=C(C)NC(=S)NC2)cc1OC` [Compound 36, 6-methyl-2-thioxo-1,2,3,4-tetrahydro-pyrimidine-5-carboxylic acid 3-(3,4-dimethoxy-phenyl)-propyl ester], the IC50 runs as follows: under setting [1], 84 µM; under setting [2], over 20 µM.

Take `CSc1ccc(CCOC(=O)C2=C(C)NC(=S)NC2CO)cc1` (stereo not shown) [45″, 4-hydroxymethyl-6-methyl-2-thioxo-1,2,3,4-tetrahydro-pyrimidine-5-carboxylic acid 2-(4-methylsulfanyl-phenyl)-ethyl ester]: the IC50 is 2.7 µM under setting [1] and 1 to 10 µM under setting [2].

Regarding `CC1=C(C(=O)OCCCc2ccccc2)C(CF)NC(=S)N1` (stereo not shown) [31′, 4-fluoromethyl-6-methyl-2-thioxo-1,2,3,4-tetrahydro-pyrimidine-5-carboxylic acid 3-phenyl-propyl ester], the IC50 runs as follows: under setting [1], 0.4 µM; under setting [2], under 1 µM.

With `CC1=C(C(=O)OCc2ccc(Cl)cc2Cl)CNC(=S)N1` [Compound 41, 6-methyl-2-thioxo-1,2,3,4-tetrahydro-pyrimidine-5-carboxylic acid 2,4-dichloro-benzyl ester], the half-maximal inhibitory concentration (IC50) under setting [1] is under 0.4 µM and the IC50 under setting [2] is under 1 µM.

Consider `CC1=C(C(=O)OCc2ccc3nc(C)oc3c2)CNC(=S)N1` [Compound 256, 6-methyl-2-thioxo-1,2,3,4-tetrahydro-pyrimidine-5-carboxylic acid 2-methyl-benzoxazol-6-ylmethyl ester], for which the IC50 reads like this: under setting [1], 3.4 µM; under setting [2], 1 to 10 µM.

As for `CC1=C(C(=O)OCc2ccc(N(C)C)cc2)CNC(=S)N1` [Compound 79, 6-methyl-2-thioxo-1,2,3,4-tetrahydro-pyrimidine-5-carboxylic acid 4-dimethylamino-benzyl ester], the concentration for half-maximal inhibition (IC50) is, setting by setting: under setting [1], 1.3 µM; under setting [2], 1 to 10 µM.

Consider `COc1ccc(CCCOC(=O)C2=C(C)NC(=S)NC2CF)cc1` (stereo not shown) [43′, 4-fluoromethyl-6-methyl-2-thioxo-1,2,3,4-tetrahydro-pyrimidine-5-carboxylic acid 3-(4-methoxy-phenyl)-propyl ester], for which the 50% inhibitory concentration (IC50) under setting [1] is 1.8 µM and the IC50 under setting [2] lay within 1 to 10 µM.

As to `CC1=C(C(=O)OCc2ccccc2)C(C(F)(F)F)NC(=S)N1` (stereo not shown) [Compound 234, 6-methyl-2-thioxo-4-trifluoromethyl-1,2,3,4-tetrahydro-pyrimidine-5-carboxylic acid benzyl ester], the half-maximal inhibitory concentration (IC50) is 100 µM under setting [1] and over 20 µM under setting [2].

Turning to `CCc1ccc(COC(=O)C2=C(C)NC(=S)NC2)o1` [Compound 264, 6-methyl-2-thioxo-1,2,3,4-tetrahydro-pyrimidine-5-carboxylic acid 5-ethyl-furan-2-ylmethyl ester], the IC50 under setting [1] turned out to be 13 µM and the IC50 under setting [2] is 10 to 20 µM.

For the molecule `CC1=C(C(=O)OCCc2ccc(C)c(Cl)c2)C(CO)NC(=S)N1` (stereo not shown) [74″, 4-hydroxymethyl-6-methyl-2-thioxo-1,2,3,4-tetrahydro-pyrimidine-5-carboxylic acid 2-(3-chloro-4-methyl-phenyl)-ethyl ester], the half-inhibitory concentration (IC50) is under 0.4 µM under setting [1] and under 1 µM under setting [2].

For the molecule `CC(C)=CCCC(C)=CCOC(=O)C1=C(C)NC(=S)NC1` [Compound 56, 6-methyl-2-thioxo-1,2,3,4-tetrahydro-pyrimidine-5-carboxylic acid 3,7-dimethyl-octa-2,6-dienyl ester], the IC50 is under 0.5 µM under setting [1] and under 1 µM under setting [2].

Take `CC1=C(C(=O)OCc2ccc(-c3cc(C(F)(F)F)n(C)n3)s2)CNC(=S)N1` [Compound 222, 6-methyl-2-thioxo-1,2,3,4-tetrahydro-pyrimidine-5-carboxylic acid 5-(1-methyl-5-trifluoromethyl-1H-pyrazol-3-yl)-thiophen-2-ylmethyl ester]: the IC50 is, setting by setting: under setting [1], under 0.4 µM; under setting [2], under 1 µM.

Consider `CC1=C(C(=O)OCc2ccc(F)cc2F)CNC(=S)N1` [Compound 69, 6-methyl-2-thioxo-1,2,3,4-tetrahydro-pyrimidine-5-carboxylic acid 2,4-difluoro-benzyl ester], for which the IC50 runs as follows: under setting [1], 1.2 µM; under setting [2], 1 to 10 µM.
